# Laboratory results reported in patent US20200216906A1, “METHODS AND COMPOSITIONS RELATING TO THE DIAGNOSIS AND TREATMENT OF CANCER” (PRESIDENT AND FELLOWS OF HARVARD COLLEGE, priority 2015, published 2020).
# Where a name gives a salt, the structure may show the parent alone.
# System: Panc02.13 cells
# Test: Radiolabeled gemcitabine efflux
# Format: in vitro ADME, human
# Details: counts per μg protein; more in Hippo-ON
# Method: Panc02.13 cells expressing GFP or YapS6A plasmid were treated with radiolabeled gemcitabine (0.5 μM) for one hour. Cells were washed twice with PBS and incubated in fresh medium. Medium was collected over the time course of 24 hours and radioactivity was measured using scintillation counter.
# It was considered whether the Hippo pathway might affect the efflux of gemcitabine and/or its metabolites. To assess directly gemcitabine efflux in conditioned media of pancreatic cancer cells both radiolabeled gemcitabine and LC-MS/MS-based methods were used. Panc02.13 cells grown in highly crowded conditions (Hippo-ON) pumped out 2-3-fold more radiolabeled gemcitabine (counts per μg protein) compared with cells grown in less crowded conditions (Hippo-OFF) (FIG. 22A). Another pathway of inactivation and export is the enzymatic conversion of gemcitabine to a uracil derivative (2′,2′-difluorodeoxyuridine, dFdU) by deamination catalyzed by cytidine deaminase (CDA)(Veltkamp et al., 2008). The efflux of gemcitabine and its deaminated metabolite, dFdU was measured by LC-MS/MS (24) in Panc02.13 cells expressing YAPS6A or vector control after gemcitabine treatment (FIG. 22B).
# Measuring gemcitabine efflux. […] Medium was collected over the time course of 24 hours and radioactivity was measured using scintillation counter.
smiles,measurement,value
"Nc1ccn([C@@H]2O[C@H](CO)[C@@H](O)C2(F)F)c(=O)n1 [Gemcitabine, Gemcitabine hydrochloride]","Radiolabeled gemcitabine pumped out, highly crowded vs less crowded",2-3 fold
